Reference: paper PMC7345905, “Microbial Metabolite Urolithin B Inhibits Recombinant Human Monoamine Oxidase A Enzyme” (Metabolites, 2020)
“And” between values parts separate entries of the source, which are not always exact repeats. Identical values can stand only once.

Tests used:
human recombinant MAO-B = target: T1, human recombinant MAO-B (Homo sapiens, UniProt P27338); experiment: MAO-Glo MAO-B inhibition assay; type: biochemical; conditions: N=1-3, listed as UroC
T1 construct: purchased Sigma-Aldrich
T1 sequence (P27338 1-520): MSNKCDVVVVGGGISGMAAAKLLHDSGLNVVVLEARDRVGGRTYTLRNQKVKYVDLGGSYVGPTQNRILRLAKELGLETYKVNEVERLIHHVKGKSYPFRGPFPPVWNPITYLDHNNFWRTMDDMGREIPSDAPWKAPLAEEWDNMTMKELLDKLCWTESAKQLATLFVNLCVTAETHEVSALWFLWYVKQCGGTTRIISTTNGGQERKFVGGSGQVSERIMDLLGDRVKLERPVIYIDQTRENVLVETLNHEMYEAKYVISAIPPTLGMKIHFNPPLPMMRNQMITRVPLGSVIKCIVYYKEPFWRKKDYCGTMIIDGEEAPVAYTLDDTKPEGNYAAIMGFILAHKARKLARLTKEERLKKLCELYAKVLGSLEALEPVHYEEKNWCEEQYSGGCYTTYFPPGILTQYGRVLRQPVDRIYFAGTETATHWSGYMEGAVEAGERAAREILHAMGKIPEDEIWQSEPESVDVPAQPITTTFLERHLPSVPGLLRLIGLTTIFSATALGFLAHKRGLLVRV

human recombinant MAO-A = target: T2, human recombinant MAO-A (Homo sapiens, UniProt P21397); experiment: MAO-A inhibition kinetics (variable substrate, Lineweaver–Burk plot); type: biochemical; parameters: Michaelis-Menten best-fit Vmax of MAO-A / Michaelis-Menten best-fit Vmax of MAO-A, Average: unit not given here; conditions: for MAO-A assay signal (luminescence) / Transformed (reciprocal of MAO-A assay signal) / Michaelis-Menten best-fit Vmax of MAO-A: N=1-3
T2 construct: purchased Sigma-Aldrich
T2 sequence (P21397 1-527): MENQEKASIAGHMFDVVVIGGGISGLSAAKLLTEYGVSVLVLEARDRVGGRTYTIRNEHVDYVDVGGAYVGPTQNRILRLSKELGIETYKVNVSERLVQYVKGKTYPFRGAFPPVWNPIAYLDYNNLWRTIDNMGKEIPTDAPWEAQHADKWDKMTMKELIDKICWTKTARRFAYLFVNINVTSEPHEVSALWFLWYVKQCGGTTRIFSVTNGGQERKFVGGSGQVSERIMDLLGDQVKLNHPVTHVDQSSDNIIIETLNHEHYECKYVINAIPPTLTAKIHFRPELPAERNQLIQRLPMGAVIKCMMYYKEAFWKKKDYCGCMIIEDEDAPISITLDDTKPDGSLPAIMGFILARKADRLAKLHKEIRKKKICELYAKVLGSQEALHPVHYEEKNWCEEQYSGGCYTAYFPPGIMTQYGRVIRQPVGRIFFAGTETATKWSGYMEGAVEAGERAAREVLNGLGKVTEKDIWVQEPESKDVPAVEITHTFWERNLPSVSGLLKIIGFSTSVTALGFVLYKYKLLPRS
Procedure: MAO inhibition assays were performed using a MAO-Glo™ Assay kit (Promega) according to the manufacturer’s instructions. Briefly, 1 µg of human recombinant MAO-A and MAO-B enzyme isoforms were incubated with 160 and 16 µM of MAO substrates, respectively. […] The enzyme reaction was quenched by the addition of a luciferin detection reagent. […] An equal volume of dimethyl sulfoxide (0.1%) was added to the enzyme assay as a control. After 1 h of incubation, the luminescence was measured with a multimode microplate reader (Synergy HT, BioTek, Winooski, VT, USA) to determine the MAO enzyme activities. Initially, the inhibition potential of all the test compounds was evaluated at a concentration of 100 μM. The control reaction (with no inhibitor) with vehicle (DMSO 0.1%) was set at 100% activity. To determine IC50 of the test compounds, the dose dependent enzyme assays were performed. We used range of 0.1 to 50 μM concentrations for MAO-A and 0.1 to 200 μM concentrations of test compounds for the MAO-B enzyme activities. The type of enzyme inhibition was determined using variable concentrations of MAO-A substrate (10–360 µM) and MAO-B substrate (2–64 µM) for the respective enzyme assay. […] A Lineweaver–Burk double reciprocal plot was generated, and the mode of inhibition was determined by visual examination of the plot. The slope of the reciprocal plots was plotted against the inhibitor concentrations and determined the x-axis intercept that represented the inhibitor constant, Ki value.
All experiments were performed in triplicates and data are presented as mean ± standard error of the mean (SEM). The raw data are provided in Supplementary Data, Table S1. Enzyme kinetic data were analyzed using the Lineweaver–Burk plot. Statistical analysis was performed by Student’s t-test using GraphPad Prism Ver. 7.0 (GraphPad Prism Software Inc., San Diego, CA, USA).

[1] = UroC 15 µM, MAO-A substrate 10 uM
[2] = UroC 15 µM, MAO-A substrate 20 uM
[3] = UroC 15 µM, MAO-A substrate 40 uM
[4] = UroC 15 µM, MAO-A substrate 80 uM
[5] = UroC 15 µM, MAO-A substrate 160 uM
[6] = UroC 15 µM, MAO-A substrate 320 uM
[7] = UroC 60 µM, MAO-A substrate 10 uM
[8] = UroC 60 µM, MAO-A substrate 20 uM
[9] = UroC 60 µM, MAO-A substrate 40 uM
[10] = UroC 60 µM, MAO-A substrate 80 uM
[11] = UroC 60 µM, MAO-A substrate 160 uM
[12] = UroC 60 µM, MAO-A substrate 320 uM

For O=c1oc2cc(O)ccc2c2cc(O)c(O)cc12 [UC, urolithin-C], the “MAO-B enzyme assay, Percent of control” value (human recombinant MAO-B; 0.1 µM) was 110.306% of control and 101.117% of control and 109.128% of control, the “MAO-B enzyme assay, Percent of control” value (human recombinant MAO-B; 1 µM) was 102.407% of control and 98.5247% of control and 98.1149% of control and the “MAO-B enzyme assay, Percent of control” value (human recombinant MAO-B; 10 µM) was 102.182% of control and 94.8161% of control and 92.9925% of control. For the same compound, the “MAO-B enzyme assay, Percent of control” value (human recombinant MAO-B; 25 µM) was 89.5195% of control and 89.6937% of control and 94.0068% of control, the “MAO-B enzyme assay, Percent of control” value (human recombinant MAO-B; 50 µM) was 87.5627% of control and 83.096% of control and 84.7864% of control and the “MAO-B enzyme assay, Percent of control” value (human recombinant MAO-B; 100 µM (Figure 1C), 100 µM) was 86.1998% of control and 88.2904% of control and 90.5046% of control. For the same compound, the “MAO-B enzyme assay, Percent of control” value (human recombinant MAO-B; 100 µM) was 82.8808% of control and 77.9531% of control and 81.7949% of control, the “MAO-B enzyme assay, Percent of control” value (human recombinant MAO-B; 200 µM) was 43.4074% of control and 44.8007% of control and 46.1838% of control and the “mode of inhibition of MAO-A” value (human recombinant MAO-A; Lineweaver–Burk plot) was “mixed mode of inhibition”. The “MAO-A assay signal (luminescence), Average” value (human recombinant MAO-A; [1]) was 1825, the “MAO-A assay signal (luminescence)” value (human recombinant MAO-A; [1]) was 1969 and 1718 and 1788 and the “MAO-A assay signal (luminescence), Average” value (human recombinant MAO-A; [2]) was 3291. For the same compound, the “MAO-A assay signal (luminescence)” value (human recombinant MAO-A; [2]) was 3541 and 3116 and 3216, the “MAO-A assay signal (luminescence), Average” value (human recombinant MAO-A; [3]) was 5930.67 and the “MAO-A assay signal (luminescence)” value (human recombinant MAO-A; [3]) was 6537 and 5679 and 5576. The “MAO-A assay signal (luminescence), Average” value (human recombinant MAO-A; [4]) was 11350.3, the “MAO-A assay signal (luminescence)” value (human recombinant MAO-A; [4]) was 12348 and 10938 and 10765 and the “MAO-A assay signal (luminescence), Average” value (human recombinant MAO-A; [5]) was 17552.3. The “MAO-A assay signal (luminescence)” value (human recombinant MAO-A; [5]) was 18484 and 16889 and 17284, the “MAO-A assay signal (luminescence), Average” value (human recombinant MAO-A; [6]) was 26455.7 and the “MAO-A assay signal (luminescence)” value (human recombinant MAO-A; [6]) was 27220 and 26215 and 25932. For the same compound, the “Transformed (reciprocal of MAO-A assay signal), Average” value (from here on “Transformed … Average”) (human recombinant MAO-A; UroC 15 µM, [1/S] 0.003125) was 3.78e-5, the “Transformed (reciprocal of MAO-A assay signal)” value (human recombinant MAO-A; UroC 15 µM, [1/S] 0.003125) was 3.674e-5 and 3.815e-5 and 3.856e-5 and the “Transformed … Average” value (human recombinant MAO-A; UroC 15 µM, [1/S] 0.00625) was 5.697e-5. The “Transformed (reciprocal of MAO-A assay signal)” value (human recombinant MAO-A; UroC 15 µM, [1/S] 0.00625) was 5.41e-5 and 5.921e-5 and 5.7857e-5, the “Transformed … Average” value (human recombinant MAO-A; UroC 15 µM, [1/S] 0.0125) was 8.81e-5 and the “Transformed (reciprocal of MAO-A assay signal)” value (human recombinant MAO-A; UroC 15 µM, [1/S] 0.0125) was 8.098e-5 and 9.142e-5 and 9.289e-5. For the same compound, the “Transformed … Average” value (human recombinant MAO-A; UroC 15 µM, [1/S] 0.025) was 0.0001686, the “Transformed (reciprocal of MAO-A assay signal)” value (human recombinant MAO-A; UroC 15 µM, [1/S] 0.025) was 0.000153 and 0.0001761 and 0.0001793 and the “Transformed … Average” value (human recombinant MAO-A; UroC 15 µM, [1/S] 0.05) was 0.0003039. The “Transformed (reciprocal of MAO-A assay signal)” value (human recombinant MAO-A; UroC 15 µM, [1/S] 0.05) was 0.0002824 and 0.0003209 and 0.0003109, the “Transformed … Average” value (human recombinant MAO-A; UroC 15 µM, [1/S] 0.1) was 0.0005479 and the “Transformed (reciprocal of MAO-A assay signal)” value (human recombinant MAO-A; UroC 15 µM, [1/S] 0.1) was 0.0005079 and 0.0005821 and 0.0005593. The “MAO-A assay signal (luminescence), Average” value (human recombinant MAO-A; [7]) was 728, the “MAO-A assay signal (luminescence)” value (human recombinant MAO-A; [7]) was 706 and 793 and 685 and the “MAO-A assay signal (luminescence), Average” value (human recombinant MAO-A; [8]) was 1221. For the same compound, the “MAO-A assay signal (luminescence)” value (human recombinant MAO-A; [8]) was 1198 and 1213 and 1252, the “MAO-A assay signal (luminescence), Average” value (human recombinant MAO-A; [9]) was 2305.33 and the “MAO-A assay signal (luminescence)” value (human recombinant MAO-A; [9]) was 2310 and 2236 and 2370. For the same compound, the “MAO-A assay signal (luminescence), Average” value (human recombinant MAO-A; [10]) was 4337.33, the “MAO-A assay signal (luminescence)” value (human recombinant MAO-A; [10]) was 4338 and 4394 and 4280 and the “MAO-A assay signal (luminescence), Average” value (human recombinant MAO-A; [11]) was 8033.33. The “MAO-A assay signal (luminescence)” value (human recombinant MAO-A; [11]) was 7953 and 7801 and 8346, the “MAO-A assay signal (luminescence), Average” value (human recombinant MAO-A; [12]) was 14867.3 and the “MAO-A assay signal (luminescence)” value (human recombinant MAO-A; [12]) was 14760 and 14941 and 14901. The “Transformed … Average” value (human recombinant MAO-A; UroC 60 µM, [1/S] 0.003125) was 6.726e-5, the “Transformed (reciprocal of MAO-A assay signal)” value (human recombinant MAO-A; UroC 60 µM, [1/S] 0.003125) was 6.775e-5 and 6.693e-5 and 6.711e-5 and the “Transformed … Average” value (human recombinant MAO-A; UroC 60 µM, [1/S] 0.00625) was 0.0001245. The “Transformed (reciprocal of MAO-A assay signal)” value (human recombinant MAO-A; UroC 60 µM, [1/S] 0.00625) was 0.0001257 and 0.0001282 and 0.0001198, the “Transformed … Average” value (human recombinant MAO-A; UroC 60 µM, [1/S] 0.0125) was 0.0002306 and the “Transformed (reciprocal of MAO-A assay signal)” value (human recombinant MAO-A; UroC 60 µM, [1/S] 0.0125) was 0.0002305 and 0.0002276 and 0.0002336. For the same compound, the “Transformed … Average” value (human recombinant MAO-A; UroC 60 µM, [1/S] 0.025) was 0.0004338, the “Transformed (reciprocal of MAO-A assay signal)” value (human recombinant MAO-A; UroC 60 µM, [1/S] 0.025) was 0.0004329 and 0.0004472 and 0.0004219 and the “Transformed … Average” value (human recombinant MAO-A; UroC 60 µM, [1/S] 0.05) was 0.000819. For the same compound, the “Transformed (reciprocal of MAO-A assay signal)” value (human recombinant MAO-A; UroC 60 µM, [1/S] 0.05) was 0.0008347 and 0.0008244 and 0.0007987, the “Transformed … Average” value (human recombinant MAO-A; UroC 60 µM, [1/S] 0.1) was 0.001374 and the “Transformed (reciprocal of MAO-A assay signal)” value (human recombinant MAO-A; UroC 60 µM, [1/S] 0.1) was 0.001416 and 0.001261 and 0.00146. The “Michaelis-Menten best-fit Vmax of MAO-A, Average” value (human recombinant MAO-A; in presence of UroC 15 uM) was 50085, the “Michaelis-Menten best-fit Vmax of MAO-A” value (human recombinant MAO-A; in presence of UroC 15 uM) was 47688 and 52039 and 50528 and the “Michaelis-Menten best-fit Vmax of MAO-A, Average” value (human recombinant MAO-A; in presence of UroC 60 uM) was 82346. For the same compound, the “Michaelis-Menten best-fit Vmax of MAO-A” value (human recombinant MAO-A; in presence of UroC 60 uM) was 96239 and 71263 and 79536 and the Ki (human recombinant MAO-A; x-axis intercept of slopes of Lineweaver–Burk plots vs inhibitor concentration) was 44.3 µM.
